Here are results for 8 compounds from paper PMC5874704, “In Silico Study, Synthesis, and Cytotoxic Activities of Porphyrin Derivatives” (Pharmaceuticals, 2018).

The structures appear in SMILES notation. A value given as a limit tells only on which side of the number the result lay.

In one series the test system is HepG2 cell line. Put plainly: MTT cytotoxicity test, HepG2. Type of series: cell-based. The settings on record: Homo sapiens, 24 h treatment, triplicate, read-out: IC50 (μM) ± SD HepG2. The method, then:
(§1) The human epithelioid cervix carcinoma cell line (HeLa), human ductal breast epithelial tumor cell line (T47D), Michigan Cancer Foundation-7 cell line (MCF-7), human colon carcinoma cell line (WIDR), hepatoblastoma-derived cell line (HepG2), and Vero cell line (derived from kidney of African green monkey) were purchased from ATCC by the Faculty of Medicine Gadjah Mada University. The cell lines were cultured in Dulbecco’s Modified Eagle Medium (DMEM, Gibco), except for Vero cell line, which was cultured in Medium-199 (M-199, Gibco). Other chemicals, i.e., potassium dihydrogen phosphate, sodium chloride, potassium chloride, sodium hydrogen phosphate, dimethyl sulfoxide, sodium dodecyl sulphate, HEPES, sodium bicarbonate, and 3-(4,5-dimetiltiazol-2-il)-2,5-difeniltetrazolium bromide (MTT) were purchased from Sigma-Aldrich. Fetal bovine serum, trypsin-EDTA 0.25%, and penicillin-streptomycin were purchased from Gibco, whereas Amphotericin B was purchased from Caisson. Phosphate-buffered saline (PBS) was obtained by mixing 0.2 g of KH2PO4, 8 g of NaCl, 0.2 g of KCl, 1.15 g of Na2HPO4, and 1 L of distilled water.
(§2) Confluent cells in the Petri dish was harvested by removing the growth media in Petri dish and adding 1 mL of trypsin-EDTA […]. Then the cells was incubated at incubator 37 °C, 5% CO2 for about three minutes. The suspension of cells was put in centrifuge tube, 2 mL of growth media was added with 7 mL of PBS. The mixture was centrifuged for 10 min at 1200 rpm. The supernatant was separated and 2–3 mL of growth media was added to the pellet cell for counting cell. The cell suspense was cultured in 96-well plates (10,000 cells/well). After 24 h, the porphyrin derivative compounds with series concentration were added to treat the cell cultures for another 24 h. The cells were treated by MTT solution for four hours at incubator (37 °C, 5% CO2) and the reaction was stopped by stopper solution (SDS 10% HCl). The plate was incubated at room temperature in dark condition for 24 h. The living cells were counted by reading the absorbance at 595 nm. The corresponding IC50 values were calculated using non-linear regression analysis (GraphPad Prism 7.0.3). Each test was run in triplicate.

The subject of another series is Vero cell line. Description: MTT cytotoxicity test, Vero (normal cells). Type of series: cell-based, African green monkey. The settings on record: Chlorocebus sabaeus, 24 h treatment, triplicate, read-out: IC50 (μM) ± SD Vero. How it is done:
as §1, §2
A general note: Formazan colour is commonly taken as a measure of viable cells.

A further series has as its system WIDR cell line. Put plainly: MTT cytotoxicity test, WIDR. Type of series: cell-based. The settings on record: Homo sapiens, 24 h treatment, triplicate, read-out: IC50 (μM) ± SD WIDR. How it is done: as §1, §2
Another series deals with MCF-7 cell line. Description: MTT cytotoxicity test, MCF-7. Type of series: cell-based. The settings on record: Homo sapiens, MCF7, 24 h treatment, triplicate, read-out: IC50 (μM) ± SD MCF-7. The method, then:
as §1, §2

Another series concerns HeLa cell line. Description: MTT cytotoxicity test, HeLa. It is filed as cell-based. The settings on record: Homo sapiens, 24 h treatment, triplicate, read-out: IC50 (μM) ± SD HeLa. The method, then: as §1, §2
A further series concerns T47D cell line. Put plainly: MTT cytotoxicity test, T47D. It is filed as cell-based. The settings on record: Homo sapiens, 24 h treatment, triplicate, read-out: IC50 (μM) ± SD T47D. How it is done:
as §1, §2

As to `Nc1ccc(-c2c3nc(c(-c4ccc(N)cc4)c4ccc([nH]4)c(-c4ccc(N)cc4)c4nc(c(-c5ccc(N)cc5)c5ccc2[nH]5)C=C4)C=C3)cc1` [TAPP, 5,10,15,20-tetrakis(p-aminophenyl)porphyrin], the IC50 was 36 ± 1.2 µM in the series with HepG2 cell line; 2264 ± 1.2 µM in the series on Vero cell line; 205.1 ± 1.2 µM in the series with WIDR cell line; 262.2 ± 1.3 µM in the series on MCF-7 cell line; 1007 ± 1.1 µM in the series on HeLa cell line; 332.6 ± 1.2 µM in the series with T47D cell line.

With `CCOC(=O)COc1ccc(-c2c3nc(c(-c4ccc(OCC(=O)OCC)c(OCC(=O)OCC)c4)c4ccc([nH]4)c(-c4cnn(C)c4)c4nc(c(-c5cnn(C)c5)c5ccc2[nH]5)C=C4)C=C3)cc1OCC(=O)OCC` [cDBECPDPzP, 5,10-di-[bis(3,4-ethylcarboxymethylenoxy)phenyl]-15,20-di-(methylpyrazole-4-yl)porphyrin], the 50% inhibitory concentration (IC50) was 28.6 ± 1.2 µM in the series with HepG2 cell line; 548.8 ± 1.2 µM in the series on Vero cell line; 28.9 ± 1.1 µM with WIDR cell line; 47.9 ± 1.1 µM with MCF-7 cell line; 1083 ± 1.2 µM in the series on HeLa cell line; 164.5 ± 1.2 µM in the series with T47D cell line.

As for `Cc1ccc(-c2c3nc(c(-c4ccc(C)cc4)c4ccc([nH]4)c(-c4ccc(N)cc4)c4nc(c(-c5ccc(C)cc5)c5ccc2[nH]5)C=C4)C=C3)cc1` [TrTMAP, 5,10,15-tris(tolyl)-20-mono(p-aminophenyl)porphyrin], the melting point is over 300 °C. Moreover, the half-maximal inhibitory concentration (IC50) with HepG2 cell line came to 107 ± 1.3 µM. In addition, the half-inhibitory concentration (IC50) with Vero cell line was determined as 4784 ± 1.2 µM. The half-inhibitory concentration (IC50) in the series with WIDR cell line amounted to 835.4 ± 1.3 µM. Further, the IC50 with MCF-7 cell line came to 328.4 ± 1.4 µM. In addition, the IC50 in the series on HeLa cell line came out at 593.1 ± 1.2 µM. For the same compound, in the series on T47D cell line, the IC50 was 1099 ± 1.3 µM.

As to `CCOC(=O)COc1ccc(-c2c3nc(c(-c4ccc(C)cc4)c4ccc([nH]4)c(-c4ccc(OCC(=O)OCC)c(OCC(=O)OCC)c4)c4nc(c(-c5ccc(C)cc5)c5ccc2[nH]5)C=C4)C=C3)cc1OCC(=O)OCC` [DBECPDTP, 5,15-di-[bis(3,4-ethylcarboxymethylenoxy)phenyl]-10,20-di(p-tolyl)porphyrin], the IC50 was determined as 37.2 ± 1.1 µM in the series on HepG2 cell line; 372.2 ± 1.1 µM in the series on Vero cell line; 33.5 ± 1.1 µM with WIDR cell line; 42.1 ± 1.1 µM with MCF-7 cell line; 201.7 ± 1.3 µM in the series on HeLa cell line; 166.7 ± 1.3 µM in the series with T47D cell line.

As to `Brc1ccc(-c2c3nc(c(-c4ccc(Br)cc4)c4ccc([nH]4)c(-c4ccc(Br)cc4)c4nc(c(-c5ccc(Br)cc5)c5ccc2[nH]5)C=C4)C=C3)cc1` [TBrPP, 5,10,15,20-tetrakis(p-bromophenyl)porphyrin], the melting point was over 300 °C. Further, the IC50 in the series with HepG2 cell line was found to be 882.7 ± 1.2 µM. In the series on Vero cell line, the IC50 came out at 1176 ± 1.1 µM. In addition, in the series on WIDR cell line, the IC50 was 772.7 ± 1.3 µM. The IC50 with MCF-7 cell line was found to be 870.6 ± 1.3 µM. Besides, the IC50 with HeLa cell line turned out to be 595.6 ± 1.3 µM. Further, the IC50 with T47D cell line stood at 443.9 ± 1.1 µM.

Turning to `CCOC(=O)COc1ccc(-c2c3nc(c(-c4cnn(C)c4)c4ccc([nH]4)c(-c4ccc(OCC(=O)OCC)c(OCC(=O)OCC)c4)c4nc(c(-c5cnn(C)c5)c5ccc2[nH]5)C=C4)C=C3)cc1OCC(=O)OCC` [DBECPDPzP, 5,15-di-[bis(3,4-ethylcarboxymethylenoxy)phenyl]-10,20-di-(methylpyrazole-4-yl)porphyrin], the concentration for half-maximal inhibition (IC50) in the series on HepG2 cell line stood at 31.7 ± 1.2 µM; with Vero cell line, 363.4 ± 1.1 µM; in the series on WIDR cell line, 34.1 ± 1.1 µM; in the series with MCF-7 cell line, 64.2 ± 1.1 µM; with HeLa cell line, 941.9 ± 1.2 µM; in the series on T47D cell line it was 177.8 ± 1.2 µM.

Turning to `Cc1ccc(-c2c3nc(c(-c4ccc(C)cc4)c4ccc([nH]4)c(-c4ccc([N+](=O)[O-])cc4)c4nc(c(-c5ccc(C)cc5)c5ccc2[nH]5)C=C4)C=C3)cc1` [TrTMNP, 5,10,15-tris(tolyl)-20-mono(p-nitrophenyl)porphyrin], the melting point was over 300 °C. Also, in the series on HepG2 cell line, the IC50 is 146.6 ± 1.2 µM. Also, the IC50 in the series with Vero cell line amounted to 10100 µM. Also, the IC50 in the series with WIDR cell line is 897.5 ± 1.1 µM. For the same compound, the IC50 with MCF-7 cell line was 505.2 ± 1.2 µM. Further, the IC50 with HeLa cell line came out at 226.1 ± 1.1 µM. The IC50 in the series with T47D cell line is 5372 ± 1.4 µM.

`Cc1ccc(-c2c3nc(c(-c4ccc(C)cc4)c4ccc([nH]4)c(-c4ccc(C)cc4)c4nc(c(-c5ccc(C)cc5)c5ccc2[nH]5)C=C4)C=C3)cc1` [TTP, 5,10,15,20-tetrakis(p-tolyl)porphyrin] registered a melting point of over 300 °C. Also, the half-maximal inhibitory concentration (IC50) with HepG2 cell line was found to be 1120 ± 1.3 µM. Moreover, the concentration for half-maximal inhibition (IC50) in the series on Vero cell line was found to be 15600 µM. Further, the half-inhibitory concentration (IC50) in the series with WIDR cell line is 969.8 ± 1.2 µM. Also, in the series with MCF-7 cell line, the concentration for half-maximal inhibition (IC50) amounted to 1305 ± 1.3 µM. Moreover, the IC50 with HeLa cell line was found to be 714.6 ± 1.1 µM. Also, the IC50 in the series with T47D cell line stood at 1241 ± 1.2 µM.

In general, IC50 refers to the midpoint of a concentration-inhibition curve. As usually defined, the melting point is the temperature of the solid-liquid transition.
